According to article PMC9122598, “NASP maintains histone H3–H4 homeostasis through two distinct H3 binding modes” (Nucleic Acids Research, 2022):
Entries after “also recorded” stand apart in the source; their conditions may differ.

Tests used:
Format in all cases: cell-based, human
[1] = tested on: HCT116 wt and NASP-dTAG cells; assay: Cell cycle distribution (high-content microscopy, EdU); conditions: 5 μM dTAG-13, 48 h; mean n=3; ns = P>0.05
Procedure: HCTT116 wt and NASP-dTAG cells were seeded at a density of 3000 cells per well in 96 well plates (6055300, Cell carrier) and treated with either dTAG-13 (5 μM, 48 hours) or DMSO (0.2%, 48 hours). Before fixation, newly replicated DNA was labelled with EdU (20 mins, 10 μM) at 37°C. Cells were washed in ice-cold PBS, fixed (4% paraformaldehyde, 15 mins, 4°C) and washes twice in ice cold PBS. EdU staining followed the Click-iT plus Alexa647-picolyl azide protocol (Thermo Scientific) and DNA was stained with DAPI (4′,6-diamidino-2-phenylindole). Images were acquired on an Olympus ScanR high-content microscope and analysed with ScanR analysis software. Cell cycle gates were defined using mean EdU and total DAPI intensities.

[2] = tested on: endogenous s- and t-NASP (NASP-FKBP12^F36V); assay: Depletion of endogenous NASP in NASP-dTAG cells (western blot, immunofluorescence); conditions: HCT116 NASP-dTAG, 5 μM dTAG-13, 48 h
Procedure: (§1) Unless stated otherwise cells were grown in DMEM with Glutamax (35050061, Gibco), 10% FBS (12389802, Hyclone) and 1% penicillin/streptomycin (15140122, Gibco) at 37°C with 5% CO2. HeLa S3 and HCT116 pLVX-TetOne-Puro cell lines were grown under Puromycin selection (1 μg/ml, P8833, Sigma). In Hela S3 and HCT116 pLVX-TetOne-Puro, the expression of sNASP-TwinStrep-HA, referred as sNASP-Strep-HA above, wt and mutants was induced by treatment with 2 μg/ml Doxycycline (631311, Clontech) for 24–48 hours. HCT116 NASP-FKBP12^F36V (NASP-dTAG) were treated with 0.2% DMSO (67–68-5, Sigma) or 5 μM dTAG-13 (6605, Tocris) for the indicated times, to induce the degradation of endogenous NASP. […] 24 hours after seeding, cells were treated with either 0.2% DMSO or 5 μM dTAG-13 for 48 hours, and cell viability was quantified with CellTiter-Blue® Cell Viability Assay (G8080, Promega), according to the manufacturer's instructions.
Protein concentrations were measured using Pierce™ 660 nm Protein Assay Reagent (Thermo Scientific) or the Bradford protein assay (Bio-Rad). […] Western blots from three independent biological replicates were quantified using the software ImageJ, version 1.0. […]

[3] = tested on: soluble histone H3–H4 pool; assay: Soluble histone pool in HCT116 NASP-dTAG cells (western blot of soluble extracts); conditions: 5 μM dTAG-13 48 h, complementation with DOX-induced sNASP
Procedure: as §1, with “instructions. […]” for “instructions.”
Protein concentrations were measured using Pierce™ 660 nm Protein Assay Reagent (Thermo Scientific) or the Bradford protein assay (Bio-Rad). […] Western blots from three independent biological replicates were quantified using the software ImageJ, version 1.0.

[4] = tested on: HCT116 wt and NASP-dTAG cells; assay: Cell viability (CellTiter-Blue); conditions: 5 μM dTAG-13, 48 h; mean n=3; ns = P>0.05
Procedure: Unless stated otherwise cells were grown in DMEM with Glutamax (35050061, Gibco), 10% FBS (12389802, Hyclone) and 1% penicillin/streptomycin (15140122, Gibco) at 37°C with 5% CO2. HeLa S3 and HCT116 pLVX-TetOne-Puro cell lines were grown under Puromycin selection (1 μg/ml, P8833, Sigma). In Hela S3 and HCT116 pLVX-TetOne-Puro, the expression of sNASP-TwinStrep-HA, referred as sNASP-Strep-HA above, wt and mutants was induced by treatment with 2 μg/ml Doxycycline (631311, Clontech) for 24–48 hours. HCT116 NASP-FKBP12^F36V (NASP-dTAG) were treated with 0.2% DMSO (67–68-5, Sigma) or 5 μM dTAG-13 (6605, Tocris) for the indicated times, to induce the degradation of endogenous NASP. In the complementation experiments, HCT116 cells were simultaneously treated with 2 μg/ml Doxycycline and either 0.2% DMSO or 5 μM dTAG-13 for 48 hours, to ensure a synchronized degradation of the endogenous protein and expression of sNASP-Strep-HA wt or mutants. For cell viability experiments, HCT116 cells were seeded at low confluency in a 24 well plate. 24 hours after seeding, cells were treated with either 0.2% DMSO or 5 μM dTAG-13 for 48 hours, and cell viability was quantified with CellTiter-Blue® Cell Viability Assay (G8080, Promega), according to the manufacturer's instructions.

[5] = tested on: endogenous s- and t-NASP, histone H3; assay: Co-immunoprecipitation of sNASP-FLAG-Myc from HeLa S3; conditions: HeLa S3, transient transfection
Procedure: Protein concentrations were measured using Pierce™ 660 nm Protein Assay Reagent (Thermo Scientific) or the Bradford protein assay (Bio-Rad). For immunoprecipitation, 2–3 mg of sNASP-FLAG-myc and sNASP-Strep-HA extracts were incubated for 3 hours at 4°C degrees with 50 μl of anti-Flag M2 (A2220, Sigma) or Anti-TwinStrep Mag-Strep beads (2–4090-002, Iba). After incubation, the beads were washed five times in ice-cold wash buffer (150 mM NaCl, 0.02% Nonidet P40, 50 mM Tris-HCl pH 7.6, 0.1 mM EDTA, 5% glycerol). Bound proteins were eluted with either Laemmli sample buffer 1X (LSB 4X: Tris-HCl (200 mM, pH 6.8), SDS 4%, glycerol (40%), DTT (100 mM)) or biotin elution buffer 1X (BXT buffer, 2–1042-025, Iba), respectively. Western blotting was performed as described previously ([11]). Western blots from three independent biological replicates were quantified using the software ImageJ, version 1.0.

Row | Compound | Cell cycle distribution [1] | Depletion of endogenous NASP [2] | Level of soluble histones (H3, H4, H4K5ac) [3] | Cell viability relative to DMSO [4] | Pull down of endogenous s- and t-NASP [5] | Pull down of histone H3 [5]
1 | CC[C@H](C(=O)N1CCCC[C@H]1C(=O)O[C@H](CCc1ccc(OC)c(OC)c1)c1ccccc1OCC(=O)NCCCCCCOc1cccc2c1C(=O)N(C1CCC(=O)NC1=O)C2=O)c1cc(OC)c(OC)c(OC)c1 (some centres unmarked) [dTAG-13] | non-significant; also recorded: without dramatic effects on cell cycle progression and cell proliferation | efficient and stable depletion of endogenous s- and t-NASP isoforms | reduced the pool of soluble histone H3–H4 | non-significant; also recorded: without dramatic effects on cell cycle progression and cell proliferation |  | 
2 | sNASP 6E mutant: sNASP-FLAG-Myc V265E I272E L282E V286E I300E L307E |  |  |  |  | impaired | efficiently pulled down histone H3
3 | sNASP wild type (wt): epitope-tagged sNASP wild type (FLAG-Myc or Strep-HA) |  |  | rescued the soluble histone pool |  | pulled down both endogenous s- and t- NASP | 
